Results: ChEMBL document CHEMBL5143525, “N-methylated diazabicyclo[3.2.2]nonane substituted triterpenoic acids are excellent, hyperbolic and selective inhibitors for butyrylcholinesterase” (Eur J Med Chem, 2022)
Active and inactive are the calls of the source. The rule behind the calls is not given here.

biological target: Cholinesterase (Equus caballus) (UniProt P81908); assay: Mixed type inhibition of equine serum BuChE by Dixon plot analysis
Sequence (P81908 whole entry): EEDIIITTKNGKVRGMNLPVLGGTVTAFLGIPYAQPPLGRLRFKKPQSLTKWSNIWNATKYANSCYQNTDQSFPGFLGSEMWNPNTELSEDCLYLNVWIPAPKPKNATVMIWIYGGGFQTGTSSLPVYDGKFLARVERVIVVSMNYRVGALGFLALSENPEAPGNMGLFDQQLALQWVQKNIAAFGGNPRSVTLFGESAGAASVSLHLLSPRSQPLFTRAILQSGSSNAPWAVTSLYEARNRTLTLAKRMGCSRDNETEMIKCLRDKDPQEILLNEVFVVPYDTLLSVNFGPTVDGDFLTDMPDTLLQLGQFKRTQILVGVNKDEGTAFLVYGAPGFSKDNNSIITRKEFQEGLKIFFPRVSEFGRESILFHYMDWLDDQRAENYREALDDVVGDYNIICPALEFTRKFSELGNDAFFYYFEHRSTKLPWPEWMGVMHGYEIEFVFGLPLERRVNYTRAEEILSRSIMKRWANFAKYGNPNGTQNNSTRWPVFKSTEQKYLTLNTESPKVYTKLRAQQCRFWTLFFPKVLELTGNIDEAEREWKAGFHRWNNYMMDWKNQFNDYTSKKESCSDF

Structure (SMILES)	inhibition mechanism
CC(=O)O[C@H]1CC[C@]2(C)[C@H]3CC=C4[C@@H]5[C@@H](C)[C@H](C)CC[C@]5(C(=O)N5CC6CC[N+](C)(CC6)C5)CC[C@@]4(C)[C@]3(C)CC[C@H]2C1(C)C	Active
CC(=O)O[C@H]1CC[C@]2(C)[C@H]3CC=C4[C@@H]5CC(C)(C)CC[C@]5(C(=O)N5CC6CC[N+](C)(CC6)C5)CC[C@@]4(C)[C@]3(C)CC[C@H]2C1(C)C	Active
CC(=O)O[C@H]1CC[C@]2(C)[C@H]3CC[C@H]4[C@@H]5[C@H](C(C)=O)CC[C@]5(C(=O)N5CC6CC[N+](C)(CC6)C5)CC[C@@]4(C)[C@]3(C)CC[C@H]2C1(C)C	Active
C=C(C)[C@@H]1CC[C@]2(C(=O)N3CC4CC[N+](C)(CC4)C3)CC[C@]3(C)[C@@H](CC[C@@H]4[C@@]5(C)CC[C@H](OC(C)=O)C(C)(C)[C@@H]5CC[C@]43C)[C@H]12	Active
CC(=O)O[C@H]1CC[C@]2(C)[C@H]3C(=O)C[C@H]4[C@@H]5C[C@@](C)(C(=O)N6CC7CC[N+](C)(CC7)C6)CC[C@]5(C)CC[C@@]4(C)[C@]3(C)CC[C@H]2C1(C)C	Active
